Assay results from patent US7825139B2, “Compounds and methods for selective inhibition of dipeptidyl peptidase-IV” (Forest Laboratories Holdings Limited (BM), priority 2005, dated 2010).

What was measured:
[1] = biological target: T1, DPP-IX (Homo sapiens, UniProt Q86TI2); test: DPP-IX IC50 assay (Ala-Pro AMC); format: biochemical
T1 construct: The full length cDNAs for human DPP-VII, DPP-VIII, DPP-IX, and FAP were obtained from Open Biosystems; 6xHis (C); made in house
Protocol: Materials. S9 insect cells and Sf-900 II SFM media were from Invitrogen. Anti-FLAG M2 immunoaffinity gel was from Sigma. Gly-Pro-AMC, Lys-Pro AMC, and Ala-Pro AMC were from Enzyme Systems. IC50 calculations were performed by non-linear regression analysis using Prism software (GraphPad). Preparation of DPP-VII, DPP-VIII, DPP-IX, and FAP baculovirus constructs. The full length cDNAs for human DPP-VII, DPP-VIII, DPP-IX, and FAP were obtained from Open Biosystems. The cDNAs were cloned into the pFastBac vector with the addition of an N-terminal FLAG tag on DPP-VII, C-terminal 6xHis tags on DPP-VIII and DPP-IX, and an N-terminal 6xHis tag on FAP (Sun 2002, Qi 2003, and Chen 2004). Baculovirus was prepared using the Bac-to-Bac Baculovirus Expression System (Invitrogen). The cDNAs in the final baculovirus constructs were sequence verified. Baculovirus expression. S9 cells were grown to mid log phase at 27C with shaking at 125 RPM and then adjusted to 2×10E6/ml just prior to baculovirus infection. Infection with DPP-VII, DPP-VIII, DPP-IX, and FAP baculoviral constructs were all performed at an MOI of 4. […] Recombinant DPPs were diluted in reaction buffer to give fluorescence values of 5000-20000 counts in the “enzyme only wells” 20 min after addition of substrate at 27° C. […] Fluorescence in each well was measured at settings of 380/460 nm. […]

[2] = biological target: T2, DPP-IV (Sus scrofa, UniProt P22411); test: DPP-IV fluorometric enzyme inhibition assay (Gly-Pro-AMC); format: biochemical, porcine
T2 construct: from tissue; host or cells: porcine
Protocol: The following methods were used to measure the activities of the compounds of the invention which inhibit the enzymatic activity of DPP-IV. The compounds of the invention are tested for their ability to inhibit the enzyme activity of purified DPP-IV. Briefly, the activity of DPP-IV is measured in vitro by its ability to cleave the synthetic substrate Gly-Pro-AMC. Cleavage of Gly-Pro-AMC by DPP-IV liberates the product AMC (7-amino-4-methyl coumarin), whose rate of appearance is directly proportional to the enzyme activity. Inhibition of the enzyme activity by specific enzyme inhibitors slows down the generation of AMC. […] The accumulation of AMC is measured fluorometrically. […]
Thus, DPP-IV enzyme activity was determined by a fluorometric assay with the substrate Gly-Pro-AMC which is cleaved by DPP-IV to release the fluorescent AMC leaving group. Free AMC (7-amino-4-methyl coumarin) was measured using an excitation wavelength of 380 nm and an emission wavelength of 460 nm with a Victor-II fluorescent reader. […] After 10-minutes substrate was added (10 μl) and allowed to react for 20-minutes at 26° C. before free AMC was measured. IC50 values were determined in triplicate, using a minimum of six different inhibitor concentrations. IC50 values were calculated using Nonlinear Regression Analysis (GraphPad, Prism, San Diego, Calif.). […]

T2 sequence (P22411 whole entry): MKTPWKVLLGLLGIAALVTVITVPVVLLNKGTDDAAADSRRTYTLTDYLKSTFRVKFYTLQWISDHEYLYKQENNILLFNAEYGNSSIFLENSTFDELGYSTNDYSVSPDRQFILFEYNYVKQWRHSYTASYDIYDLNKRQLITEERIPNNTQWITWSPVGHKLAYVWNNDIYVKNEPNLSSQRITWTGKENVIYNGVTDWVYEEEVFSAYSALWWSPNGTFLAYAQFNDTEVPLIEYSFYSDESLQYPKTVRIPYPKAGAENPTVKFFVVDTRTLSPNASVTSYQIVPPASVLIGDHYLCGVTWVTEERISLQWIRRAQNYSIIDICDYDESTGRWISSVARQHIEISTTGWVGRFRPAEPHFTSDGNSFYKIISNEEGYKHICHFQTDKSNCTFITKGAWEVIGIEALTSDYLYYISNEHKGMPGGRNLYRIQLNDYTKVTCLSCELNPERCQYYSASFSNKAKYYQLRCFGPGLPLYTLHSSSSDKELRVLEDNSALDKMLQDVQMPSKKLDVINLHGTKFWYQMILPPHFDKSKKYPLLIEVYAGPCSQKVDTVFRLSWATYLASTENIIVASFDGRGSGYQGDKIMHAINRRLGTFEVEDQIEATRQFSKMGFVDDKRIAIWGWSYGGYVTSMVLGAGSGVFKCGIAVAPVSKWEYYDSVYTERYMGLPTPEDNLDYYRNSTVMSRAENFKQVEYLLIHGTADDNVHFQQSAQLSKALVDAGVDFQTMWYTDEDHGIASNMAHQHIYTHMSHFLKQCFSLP
T1 sequence (Q86TI2 whole entry): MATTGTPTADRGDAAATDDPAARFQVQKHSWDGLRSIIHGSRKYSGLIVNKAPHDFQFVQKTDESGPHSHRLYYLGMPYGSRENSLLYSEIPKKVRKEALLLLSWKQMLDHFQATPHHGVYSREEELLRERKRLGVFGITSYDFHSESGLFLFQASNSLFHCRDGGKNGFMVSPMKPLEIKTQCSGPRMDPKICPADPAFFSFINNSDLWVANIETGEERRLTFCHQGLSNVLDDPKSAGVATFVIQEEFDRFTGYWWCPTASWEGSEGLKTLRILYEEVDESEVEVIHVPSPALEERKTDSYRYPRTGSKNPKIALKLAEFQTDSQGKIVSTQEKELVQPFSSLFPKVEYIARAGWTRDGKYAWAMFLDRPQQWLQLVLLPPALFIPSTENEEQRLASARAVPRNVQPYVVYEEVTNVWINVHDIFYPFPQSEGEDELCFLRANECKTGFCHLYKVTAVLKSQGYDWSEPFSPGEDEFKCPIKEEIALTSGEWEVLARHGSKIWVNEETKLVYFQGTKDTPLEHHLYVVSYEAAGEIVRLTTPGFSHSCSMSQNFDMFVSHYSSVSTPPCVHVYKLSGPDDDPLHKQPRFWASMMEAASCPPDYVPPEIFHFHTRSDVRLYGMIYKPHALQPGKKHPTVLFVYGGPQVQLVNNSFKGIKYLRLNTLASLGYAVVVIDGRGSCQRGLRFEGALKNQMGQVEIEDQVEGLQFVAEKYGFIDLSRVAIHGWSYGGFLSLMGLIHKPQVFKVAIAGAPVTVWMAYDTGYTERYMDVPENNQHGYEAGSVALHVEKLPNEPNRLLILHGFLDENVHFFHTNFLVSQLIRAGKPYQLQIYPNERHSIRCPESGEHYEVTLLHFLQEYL

O=C(CNC1CCCC1)N1CCC[C@H]1B(O)O [Compound 19]
inhibition of DPP-IX (in words) [1]: potent inhibitor
inhibition of DPP-IV (in words) [2]: potent inhibitor
